One experiment has as its target PDE II. The experiment can be described thus: Phosphodiesterase inhibition in vitro, PDE II (cGMP-stimulatable). The experiment is classed as biochemical, porcine or bovine. The conditions noted are these: 3H-cAMP substrate, 10^-6 mol/l cGMP added. From the text:
(§1) The c-GMP-stimulatable PDE II, the c-GMP-inhibitable PDE III and the cAMP-specific PDE IV were isolated either from porcine or bovine heart myocard. The Ca^2+ -calmodulin-stimulatable PDE I was isolated from porcine aorta, porcine brain or, preferably, bovine aorta. The c-GMP-specific PDE V was obtained from porcine small intestine, porcine aorta, human platelets and, preferably, bovine aorta. They were purified by anion exchange chromatography on MonoQ® Pharmacia following essentially the method of M. Hoey and Miles D. Houslay, Biochemical Pharmacology, Vol. 40, 193-202 (1990) and C. Lugman et al. Biochemical Pharmacology Vol. 35 1743-1751 (1986).
(§2) The enzyme activity is determined in a test batch of 100 μl in 20 mM Tris/HCl buffer pH 7.5 which comprises 5 mM MgCl2, 0.1 mg/ml bovine serum albumin and either 800 Bq ^3 HcAMP or ^3 HcGMP. The end concentration of the corresponding nucleotide is 10^-6 mol/l. The reaction is started by adding the enzyme, and the quantity of enzyme is such that approx. 50% of the substrate are converted during the incubation time of 30 minutes. To test the cGMP-stimulatable PDE II, ^3 HcAMP is used as substrate, 10^-6 mol/l unlabelled cGMP are added to the batch. To test the Ca-calmodulin-dependent PDE I, 1 μM CaCl2 and 0.1 μM calmodulin are also added to the reaction batch. The reaction is stopped by adding 100 μl of acetonitrile which contains 1 mM cAMP and 1 mM AMP. 100 μl of the reaction batch are separated by HPLC and the cleavage products are quantified on-line using a flow scintillation counter. The substance concentration at which the reaction rate is reduced by 50% is measured. Also used for testing were the "Phosphodiesterase [^3 H] cAMP-SPA enzyme assay" and the "Phosphodiesterase [^3 H]cGMP-SPA enzyme assay" by Amersham Life Science. The test was performed following the manufacturer's protocol. To determine the PDE2 activity, the [^3 H] cAMP SPA assay was used, 10^-6 M cGMP being added to the reaction batch for activating the enzyme. To measure PDE1, 10^-7 M calmodulin and 1 μM CaCl2 were added to the reaction batch. PDE5 was measured using the [^3 H] cGMP SPA assay.

The target of the next experiment is PDE I. Put plainly: Phosphodiesterase inhibition in vitro, PDE I (Ca-calmodulin-stimulatable). The experiment is classed as biochemical, porcine aorta, porcine brain or, preferably, bovine aorta. The conditions noted are these: Ca/calmodulin added, substrate 10^-6 mol/l.
From the text: as §1, §2

The target of the next experiment is PDE V. The experiment can be described thus: Phosphodiesterase inhibition in vitro, PDE V (cGMP-specific). The format is biochemical. As to conditions: 3H-cGMP substrate.
From the text: as §1, §2

For orientation: IC50 means the midpoint of a concentration-inhibition curve. Higher therefore signals a need for much substance.

Take `Cc1nn(C(CCCc2ccccc2)C(C)O)c2nc(Cc3ccccc3)[nH]c(=O)c12` (single isomer, unassigned) [Example 32, 6-Benzyl-1-[1-(1-hydroxy-ethyl)-4-phenyl-butyl]-3-methyl-1,5-dihydro-pyrazolo[3,4-d]pyrimidin-4-one]: the IC50 came to 300 nM against PDE II, 500 nM at PDE I and 300 nM against PDE V.
As for `Cc1nn(C(CCCc2ccccc2)C(C)O)c2nc(Cc3ccccc3)[nH]c(=O)c12` (single isomer, unassigned) [Example 33, 6-Benzyl-1-[1-(1-hydroxy-ethyl)-4-phenyl-butyl]-3-methyl-1,5-dihydro-pyrazolo[3,4-d]pyrimidin-4-one], the IC50 on PDE II came to 500 nM; against PDE I it was 500 nM; on PDE V it was 800 nM.
On to `COc1ccc(Cc2nc3c(cnn3C(C)CCCc3ccccc3)c(=O)[nH]2)cc1OC` (stereo not drawn) [Example 9], for which the IC50 against PDE II, against PDE I and on PDE V was 300 nM each time.
`CC(CCCc1ccccc1)n1ncc2c(=O)[nH]c(Cc3ccc(Cl)c(Cl)c3)nc21` (stereo not drawn) [Example 10]: the results for the IC50 at PDE II, at PDE I and against PDE V were 500 nM, 300 nM and 50 nM, respectively.
With `CCc1nn(C(C)CCCc2ccccc2)c2nc(Cc3ccc(Br)cc3)[nH]c(=O)c12` (stereo not drawn) [Example 11, 6-(4-Bromo-benzyl)-1-(1-methyl-4-phenyl-butyl)-3-ethyl-1,5-dihydro-pyrazole[3,4-d]pyrimidin-4-one], the IC50 is 100 nM against PDE II, above 10000 nM at PDE I and 50 nM at PDE V.

The record behind these values is patent US6174884A, “1,5-dihydro-pyrazolo[34-D]-pyrimidinone derivatives” (Bayer Aktiengesellschaft, priority 1997, dated 2001).
